Values of other authors in US20100249179A1, “Farnesoid X Receptor Agonists” (SMITHKLINE BEECHAM CORPORATION, priority 2007, published 2010).
Entries after “also recorded” stand apart in the source; their conditions may differ.

Tests used:
[1] = system: C57BL mice on high-fat diet; conditions: cited from earlier work
male ob/ob mice = conditions: GW4064 30 mg/kg intraperitoneally; cited from earlier work
diabetic db/db mice = conditions: cited from earlier work
bile duct-ligated mouse = bile duct-ligated mouse model; cited from earlier work
[2] = system: mice on a lithogenic diet; conditions: cited from earlier work
[3] = GW4064 100 mg/kg twice a day orally, high-fat diet mice, 100 mg/kg
[4] = GW4064 100 mg/kg twice a day orally, high-fat diet mice
[5] = oral GW4064 30 mg/kg bid, db/db mice

CC(C)c1onc(-c2c(Cl)cccc2Cl)c1COc1ccc(/C=C/c2cccc(C(=O)O)c2)c(Cl)c1 [GW4064]
glucose tolerance ([1]; GW4064 100 mg/kg twice a day orally, high-fat diet mice, GTT, 100 mg/kg): corrected glucose intolerance; also recorded: improve
serum glucose [1, 3]: decreased
serum insulin [1, 3]: decreased
serum triglyceride [1, 3]: decreased
high-fat diet induced body weight gain [1, 4]: reduced
liver triglyceride content [1, 4]: reduced
body fat mass ([1]; mice on high-fat diet): decrease
body weight ([1]; mice on high-fat diet): decrease
total cholesterol ([1]; mice on high-fat diet): decrease
body weight (male ob/ob mice): did not alter
fasting blood glucose (male ob/ob mice): no effect
food intake (male ob/ob mice): did not alter
glucose tolerance (male ob/ob mice): improved
insulin concentration (male ob/ob mice): decreased
insulin sensitivity (male ob/ob mice): enhanced
glycogen storage in the liver (diabetic db/db mice; db/db mice): enhanced
insulin signalling in the liver (diabetic db/db mice; db/db mice): enhanced
hyperglycemia (diabetic db/db mice; diabetic db/db mice): significantly improved
hyperlipidemia (diabetic db/db mice; diabetic db/db mice): significantly improved
NEFA (diabetic db/db mice; [5]): decreased
blood glucose (diabetic db/db mice; [5]): decreased
serum β-hydroxybutyrate (diabetic db/db mice; [5]): decreased
total cholesterol (diabetic db/db mice; [5]): decreased
triglyceride (diabetic db/db mice; [5]): decreased
bacterial overgrowth (bile duct-ligated mouse): decreased
mucosal barrier (bile duct-ligated mouse): improved
translocation of bacteria to mesenteric lymph nodes (bile duct-ligated mouse): decreased
formation of cholesterol crystals in the bile [2]: prevented
